Measured values taken from patent US20210392889A1, “COMPOSITIONS COMPRISING PYRIDINE CARBOXYLATE HERBICIDES WITH PDS INHIBITOR HERBICIDES” (Corteva Agriscience LLC, priority 2018, published 2021).

Key:
[1] = tested on: Russian thistle (SASKR, Salsola kali); assay: Greenhouse postemergence herbicidal effect, visual injury after 20-22 d; format: in vivo
Excerpt: (§1) Seeds of the desired test plant species were planted in a 90:10% v/v (volume/volume) mixture of PRO-MIX® BX (Premier Tech Horticulture, Quakertown, Pa., USA) and PROFILE® GREENS GRADE™ (Profile Products LLC, Buffalo Grove, Ill., USA) planting mixture, which typically has a pH of 5.2 to 6.2 and an organic matter content of at least 50 percent, in plastic pots with a surface area of 103.2 square centimeters (cm^2). In some aspects, to ensure good germination and healthy plants, a fungicide treatment and/or other chemical or physical treatment was applied. The plants were grown for 7-36 days (d) in a greenhouse with an approximate 14-hour (h) photoperiod which was maintained at about 23° C. during the day and 22° C. during the night. Nutrients and water were added on a regular basis and supplemental lighting was provided with overhead metal halide 1000-Watt lamps as necessary. The plants were employed for testing when they reached the second or third true leaf stage.
(§2) Emulsifiable concentrates of each of each pyridine carboxylate herbicide (Compound A or Compound B) were prepared at 100 grams acid equivalent per liter (g ae/L). The emulsifiable concentrates also included a safener, cloquintocet-mexyl, at 120 grams active ingredient per liter (g ai/L). An aliquot of each emulsifiable concentrate was placed in a 25 mL glass vial and diluted with an aqueous mixture of 1.25% (v/v) ACTIROB® B esterified rapeseed oil (Bayer Crop Science, Research Triangle Park, N.C., USA) or MSO® Concentrate with LECI-TECH® methylated soybean oil (Loveland Products, Loveland, Colo., USA) to obtain concentrated stock solutions at the highest application rate for each herbicide, based upon a 12 milliliter (mL) application volume at a rate of 187 liters per hectare (L/ha). The concentrated stock solutions were further diluted with an aqueous mixture of 1.25% v/v ACTIROB® B or MSO® Concentrate with LECI-TECH® to obtain stock solutions at reduced application rates for each herbicide. Spray solutions of the herbicide combinations (Compound A or Compound B plus PDS inhibitor herbicide) were prepared by adding weighed amounts or aliquots of the PDS inhibitor herbicide to the stock solutions of Compound A or Compound B to form 12-mL spray solutions in two- or three-way combinations.
(§3) The spray solutions were applied to the plant material with an overhead Mandel track sprayer equipped with 8002E nozzles calibrated to deliver 187 L/ha over an application area of 0.503 square meters (m^2) at a spray height of 18 inches ([…] centimeters (cm)) above the average plant canopy. Control plants were sprayed in the same manner with the solvent blank. All pyridine carboxylate herbicide (component a) application rates are given as “g ae/ha” and all PDS inhibitor herbicide (component b) application rates are given as “g ai/ha.”
(§4) The treated plants and control plants were placed in a greenhouse as described above and watered by sub-irrigation to prevent wash-off of the test compounds. After 20-22 d, the condition of the test plants as compared with that of the control plants was determined visually and scored on a scale of 0 to 100 percent where 0 corresponds to no injury and 100 corresponds to complete kill.

[2] = tested on: common lambsquarters (CHEAL, Chenopodium album L.); assay: as above; format: in vivo
Excerpt: as §1, §2, §3, §4

[3] = tested on: kochia (KCHSC, Kochia scoparia); assay: as above; format: in vivo
Excerpt: as §1, §2, §3, §4

[4] = tested on: spring rape (BRSNN, Brassica napus); assay: as above; format: in vivo
Excerpt: as §1, §2, §3, §4

[5] = tested on: wild buckwheat (POLCO, Polygonum convolvulus); assay: as above; format: in vivo
Excerpt: as §1, §2, §3, §4

[6] = tested on: wild chamomile (MATCH, Matricaria chamomilla); assay: as above; format: in vivo
Excerpt: as §1, §2, §3, §4

[7] = tested on: wild mustard (SINAR, Sinapis arvensis); assay: as above; format: in vivo
Excerpt: as §1, §2, §3, §4

spring wheat (TRZAS) = assay: Greenhouse postemergence phytotoxicity on crop, visual injury after 20-22 d; format: in vivo, Triticum aestivum
Excerpt: as §1, §2, §3, §4

spring barley (HORVS) = assay: as above; format: in vivo, Hordeum vulgare
Excerpt: as §1, §2, §3, §4

[8] = tested on: Canada thistle (CIRAR, Cirsium arvense); assay: Greenhouse postemergence herbicidal effect, visual injury after 20-22 d; format: in vivo
Excerpt: as §1, §2, §3, §4

[9] = tested on: pigweed (AMARE, Amaranthus retroflexus); assay: as above; format: in vivo
Excerpt: as §1, §2, §3, §4

[10] = tested on: winter rape (BRSNW, Brassica napus); assay: as above; format: in vivo; settings: 60 g/ha, Table 1
Excerpt: as §1, §2, §3, §4

[11] = tested on: Italian ryegrass (LOLMU, Lolium multiflorum.); assay: as above; format: in vivo; settings: 12.5 g/ha, Table 4
Excerpt: as §1, §2, §3, §4

[12] = tested on: barnyardgrass (ECHCG, Echinochloa crus-galli); assay: as above; format: in vivo; settings: 12.5 g/ha, Table 4
Excerpt: as §1, §2, §3, §4

[13] = tested on: broad-leaf dock (RUMOB, Rumex obtusifolius); assay: as above; format: in vivo; settings: 12.5 g/ha, Table 4
Excerpt: as §1, §2, §3, §4

[14] = tested on: common rice (ORYSA, Oryza sativa); assay: as above; format: in vivo; settings: 12.5 g/ha, Table 4
Excerpt: as §1, §2, §3, §4

[15] = tested on: giant foxtail (SETFA, Setaria faberi); assay: as above; format: in vivo; settings: 12.5 g/ha, Table 4
Excerpt: as §1, §2, §3, §4

[16] = tested on: ivyleaf morningglory (IPOHE, Ipomoea hederacea); assay: as above; format: in vivo; settings: 12.5 g/ha, Table 4
Excerpt: as §1, §2, §3, §4

[17] = tested on: large crabgrass (DIGSA, Digitaria sanguinalis); assay: as above; format: in vivo; settings: 12.5 g/ha, Table 4
Excerpt: as §1, §2, §3, §4

[18] = tested on: soybean (GLXMA=Glycine max); assay: as above; format: in vivo; settings: 12.5 g/ha, Table 4
Excerpt: as §1, §2, §3, §4

[19] = tested on: velvetleaf (ABUTH, Abutilon theophrasti); assay: as above; format: in vivo; settings: 12.5 g/ha, Table 4
Excerpt: as §1, §2, §3, §4

[20] = tested on: wild pansy (VIOTR, Viola tricolor); assay: as above; format: in vivo; settings: 12.5 g/ha, Table 4
Excerpt: as §1, §2, §3, §4

## CCC(Oc1ccc(F)c(C(F)(F)F)c1)C(=O)NCc1ccccc1 (stereo not shown) [Beflubutamid, 2-[4-fluoro-3-(trifluoromethyl)phenoxy]-N-(phenylmethyl)butanamide, reference compound]
[1]; 42.5 g/ha, Table 2
  visual injury Obs: 0%
[2]; 42.5 g/ha, Table 2
  visual injury Obs: 0%
[3]; 42.5 g/ha, Table 2
  visual injury Obs: 0%
[4]; 42.5 g/ha, Table 2
  visual injury Obs: 25%
[5]; 42.5 g/ha, Table 2
  visual injury Obs: 0%
[6]; 42.5 g/ha, Table 2
  visual injury Obs: 0%
[7]; 42.5 g/ha, Table 2
  visual injury Obs: 5%
Spring wheat (TRZAS); 42.5 g/ha, Table 2
  visual injury Obs: 0%
Spring barley (HORVS); 42.5 g/ha, Table 2
  visual injury Obs: 18%

## O=C(Nc1ccc(F)cc1F)c1cccnc1Oc1cccc(C(F)(F)F)c1 [Diflufenican, N-(2,4-difluorophenyl)-2-[3-(trifluoromethyl)phenoxy]-3-pyridinecarboxamide, reference compound]
[8]; 60 g/ha, Table 1
  visual injury: 5%
[1]; 60 g/ha, Table 1
  visual injury: 18%
[2]; 60 g/ha, Table 1
  visual injury: 13%
[3]; 60 g/ha, Table 1
  visual injury: 13%
[9]; 60 g/ha, Table 1
  visual injury: 20%
[5]; 60 g/ha, Table 1
  visual injury: 10%
[6]; 60 g/ha, Table 1
  visual injury: 0%
[7]; 60 g/ha, Table 1
  visual injury: 23%
[10]
  visual injury: 18%
Spring wheat (TRZAS); 60 g/ha, Table 1
  visual injury: 0%
Spring barley (HORVS); 60 g/ha, Table 1
  visual injury: 13%

## Cn1cc(-c2ccccc2)c(=O)c(-c2cccc(C(F)(F)F)c2)c1 [Fluridone, 1-methyl-3-phenyl-5-[3-(trifluoromethyl)-phenyl]-4(1H)-pyridinone, reference compound]
[8]; 280 g/ha, Table 3
  visual injury Obs: 18%
[1]; 280 g/ha, Table 3
  visual injury Obs: 0%
[2]; 280 g/ha, Table 3
  visual injury Obs: 13%
[9]; 280 g/ha, Table 3
  visual injury Obs: 23%
[4]; 280 g/ha, Table 3
  visual injury Obs: 18%
[5]; 280 g/ha, Table 3
  visual injury Obs: 13%
[6]; 280 g/ha, Table 3
  visual injury Obs: 5%
[7]; 280 g/ha, Table 3
  visual injury Obs: 45%
Spring wheat (TRZAS); 280 g/ha, Table 3
  visual injury Obs: 0%
Spring barley (HORVS); 280 g/ha, Table 3
  visual injury Obs: 0%

## O=C(Nc1ccc(F)cc1)c1cccc(Oc2cccc(C(F)(F)F)c2)n1 [Picolinafen, N-(4-fluorophenyl)-6-[3-(trifluoromethyl)phenoxy]-2-pyridinecarboxamide, reference compound]
[8]; 12.5 g/ha, Table 4
  visual injury Obs: 5%
[11]
  visual injury Obs: 0%
[12]
  visual injury Obs: 0%
[13]
  visual injury Obs: 0%
[2]; 12.5 g/ha, Table 4
  visual injury Obs: 20%
[14]
  visual injury Obs: 5%
[15]
  visual injury Obs: 0%
[16]
  visual injury Obs: 5%
[17]
  visual injury Obs: 50%
[18]
  visual injury Obs: 20%
[4]; 12.5 g/ha, Table 4
  visual injury Obs: 28%
[19]
  visual injury Obs: 15%
[20]
  visual injury Obs: 0%
